Non-standard residues stand in square brackets, D forms with d. Residues, ends and D or L forms follow the SMILES beside them. pGlu = O=C1CC[C@@H](C(=O)O)N1
Target: T1, SH3-2 domain of NCK1 (Homo sapiens, UniProt P16333)
T1 construct: To amplify the NCK1 SH3-2 domain, the primers; 10xHis tag with TEV site (vector pSF-OXB20-NH2-10HIS) (N, cleaved yes); made in house; host or cells: E. coli C43(DE3)
Assay: Isothermal titration calorimetry (ITC) binding to NCK1 SH3-2 domain
Details: ITC, 25 °C, pH 8.0
From the text: Human PTP1B cDNA (NM_002827) and human NCK1 cDNA (NM 006153) were obtained (Origene, MD, USA). PTP1B Primers were designed to amplify the ORFs with added homology to the cut vector (EcoRI-digested pSF-OXB20-NH2-10HIS) in the forward primer sequence. To amplify full-length PTP1B, the primers ptp1b_FL_fwd ([…]) (SEQ ID NO: 159) and ptp1b_FL_rev ([…]) (SEQ ID NO: 160) were used. To amplify truncations of PTP1B, the following primer pairs were used: ptp1b_FL-Fwd and one of Ptplb_323stop_rev (gtgcaggaggagttcgaatt[…]) (SEQ ID NO: 161), ptp1b_344stop_rev ([…]) (SEQ ID NO: 162) or ptp1b_278stop_rev([…]) (SEQ ID NO: 163). To amplify the NCK1 SH3-2 domain, the primers ncklsh32_fwd ([…]) (SEQ ID NO: 164) and ncklsh32_rev ([…]) (SEQ ID NO: 165) were used. The amplified fragments were purified using a DNA clean-up kit according to manufacturer's instructions (QIAquick PCR purification kit, Qiagen).
To produce and purify fusion proteins, a culture was inoculated with 1% of overnight-cultured inoculum. Protein expression was carried out under the conditions described above, scaled up as necessary. Cells expressing the recombinant proteins were harvested in 50 mL tubes by centrifugation and stored at −80 °C. Cells containing the expressed gene product were thawed over ice and resuspended in Extraction buffer (10 mM Tris, pH 7.4 or 10 mM Sodium Phosphate, pH 8.0; 300 mM NaCl, 1 mM DTT or TCEP; 0-10% glycerol and 1 μg lysozyme) and sonicated over ice (4 °C) for 3 min total using pulses of 5 s with 15 s intervals, using a wide probe at 15 amplitude microns (Soniprep 150, MSE). Insoluble material was removed from the lysate by centrifugation at 20K rpm for 20-60 min at 4 °C. Supernatant was filtered through a 0.22 μm PVDF filter membrane and applied to 1-2 5 mL HisTrap FF Crude (Cytiva) prepacked Ni columns and connected to an AKTA explorer. After thorough washing with binding buffer (10 mM Tris, pH 7.4 or 10 mM Sodium Phosphate, pH 8.0; 300 mM NaCl; 1 mM DTT or TCEP and 25 mM Imidazole), protein was eluted using elution buffer (10 mM Tris, pH 7.4 or 10 mM Sodium Phosphate, pH 8.0; 150-300 mM NaCl; 1 mM DTT or TCEP and 250 mM Imidazole). Fractions containing protein of interest were confirmed by SDS PAGE. Protein was diluted with GF buffer (10 mM Tris, pH 7.4 or 10 mM Sodium Phosphate, pH 8.0; 150-300 mM NaCl) and subjected to TEV protease treatment overnight at 4-10 °C. Following proteolytic digestion, HIS-tag and TEV protease were removed by filtration through a clean 5 mL HisTrap FF Crude (Cytiva) prepacked Ni column. Protein was concentrated on a PES ultrafiltration device by centrifugation at 4000 rpm at 4 °C, and protein was polished via a HiPrep S-100 26/60 (Cytiva) using GF buffer (as described above). Purified proteins were concentrated using ultrafiltration, and protein concentration was determined using ultraviolet-visible spectroscopy. The integrity and identity of all proteins were verified by mass spectrographic analysis.
Isothermal titration calorimetry (ITC) was used to determine binding affinities for peptides against the SH3-2 domain of NCK1. Experiments were conducted at 25 °C using either a MicroCal iTC200 or MicroCal PEAQ-ITC calorimeter. The buffer used for all ITC experiments was 10 mM sodium [COMPOUND LEFT OUT] mM sodium chloride (pH=8.0). A series of peptides (concentration 3-7.5 mM) were titrated in to NCK1 SH3-2 domain (concentration 0.125-0.3 mM) using the following conditions: one injection of 0.2 μL followed by 19 injections of 2 μL, 120-150 seconds spacing between injections, at 25 °C. The data were fit using analysis software provided by the manufacturer and affinity values were calculated. The best fitting occurred when the number of sites was between 0.8 and 1.2. The experiments were repeated twice for a total of three times, and the average binding affinity for each peptide was generated. […]

[1] = Alanine scanning of the MD17 15-mer peptide
[2] = substitutions at position 1 of MD18
[3] = Alanine scanning of the MD20 6-mer peptide
[4] = Sliding window peptide analysis

Molecule | Kd (Peptide truncation analysis) [µM] | Kd [2] [µM] | further results
CC(=O)N1CCC[C@H]1C(=O)N[C@@H](CCCCN)C(=O)N[C@@H](CCCNC(=N)N)C(N)=O [MH014, Ac-PKR-NH2] (Ac-Pro-Lys-Arg-NH2) | > 1000 |  | 
CC(=O)N1CCC[C@H]1C(=O)N1CCC[C@H]1C(=O)N[C@@H](CCCCN)C(N)=O [MH015, Ac-PPK-NH2] (Ac-Pro-Pro-Lys-NH2) | > 1000 |  | 
CC(=O)N[C@@H](CCCNC(=N)N)C(=O)N1CCC[C@H]1C(=O)N1CCC[C@H]1C(=O)N[C@@H](CCCCN)C(N)=O [MH016, Ac-RPPK-NH2] (Ac-RPPK-NH2) | > 1000 |  | 
CC(=O)N1CCC[C@H]1C(=O)N1CCC[C@H]1C(=O)N[C@@H](CCCCN)C(=O)N[C@@H](CCCNC(=N)N)C(N)=O [MH017, Ac-PPKR-NH2] (Ac-PPKR-NH2) | > 1000 |  | 
CC(=O)N1CCC[C@H]1C(=O)N[C@@H](CCCNC(=N)N)C(=O)N1CCC[C@H]1C(N)=O [MH019, Ac-PRP-NH2] (Ac-Pro-Arg-Pro-NH2) | > 1000 |  | 
CC(=O)N[C@@H](CCCNC(=N)N)C(=O)N1CCC[C@H]1C(=O)N1CCC[C@H]1C(N)=O [MH020, Ac-RPP-NH2] (Ac-Arg-Pro-Pro-NH2) | > 1000 |  | 
CC(=O)N1CCC[C@H]1C(=O)N[C@@H](CCCNC(=N)N)C(=O)N1CCC[C@H]1C(=O)N1CCC[C@H]1C(N)=O [MH021, Ac-PRPP-NH2] (Ac-PRPP-NH2) | > 1000 |  | 
N=C(N)NCCC[C@H](NC(=O)[C@H](CCCCN)NC(=O)[C@@H]1CCCN1C(=O)[C@@H]1CCCN1C(=O)[C@H](CCCNC(=N)N)NC(=O)[C@@H]1CCCN1C(=O)[C@@H]1CCC(=O)N1)C(N)=O [MH043, H-Pyr-PRPPKR-NH2] ([pGlu]PRPPKR-NH2) |  |  | Kd (Modified MD18/MD20 peptides): ≤ 300 µM
N=C(N)NCCC[C@H](NC(=O)[C@H](CCCCN)NC(=O)[C@@H]1CCCN1C(=O)[C@@H]1CCCN1C(=O)[C@H](CCCNC(=N)N)NC(=O)[C@@H]1CCC(=O)N1)C(N)=O [MH044, H-Pyr-RPPKR-NH2] ([pGlu]RPPKR-NH2) |  |  | Kd (Modified MD18/MD20 peptides): > 1000 µM
CCNC(=O)[C@H](CCCNC(=N)N)NC(=O)[C@H](CCCCN)NC(=O)[C@@H]1CCCN1C(=O)[C@@H]1CCCN1C(=O)[C@H](CCCNC(=N)N)NC(=O)[C@@H]1CCCN1C(C)=O [MH045, Ac-PRPPKR-NHEt] (Ac-PRPPKR-NHEt) |  |  | Kd (Modified MD18/MD20 peptides): ≤ 300 µM
CCNC(=O)[C@H](CCCNC(=N)N)NC(=O)[C@H](CCCCN)NC(=O)[C@@H]1CCCN1C(=O)[C@@H]1CCCN1C(=O)[C@H](CCCNC(=N)N)NC(=O)[C@@H]1CCCN1C(=O)[C@@H]1CCCN1C(C)=O [MH046, Ac-PPRPPKR-NHEt] (Ac-PPRPPKR-NHEt) |  |  | Kd (Modified MD18/MD20 peptides): ≤ 300 µM
Ac-APPEHIPPPPRPPKR-NH2 [MSJ012] |  |  | Kd [1]: ≤ 300 µM
Ac-APRPPKR-NH2 [MH047, Ac-APRPPKR-NH2] | ≤ 300 | ≤ 300 | Kd (Modified MD18/MD20 peptides): ≤ 300 µM
Ac-ARPPKR-NH2 [MH008, Ac-ARPPKR-NH2] |  |  | Kd [3]: > 1000 µM
Ac-EHIPPP-NH2 [MH039, Ac-EHIPPP-NH2] |  |  | Kd [4]: > 1000 µM
Ac-EHIPPPPRPPKR-NH2 [MH028] | ≤ 300 |  | 
Ac-HEDLEPPPEHIPPPPRPPKR-NH2 [MH090] |  |  | Kd (N- or C-terminal extensions, 30-mers tested one to three times): ≤ 300 µM
Ac-HIPPPPRPPKR-NH2 [MH027] | ≤ 300 |  | 
Ac-IPPPPR-NH2 [MH038, Ac-IPPPPR-NH2] |  |  | Kd [4]: > 1000 µM
Ac-IPPPPRPPKR-NH2 [MH026] | ≤ 300 |  | 
Ac-NPRPPKR-NH2 [MH069, Ac-NPRPPKR-NH2] |  | ≤ 300 | 
Ac-PAPEHIPPPPRPPKR-NH2 [MSJ013] |  |  | Kd [1]: ≤ 300 µM
Ac-PAPPKR-NH2 [MH009, Ac-PAPPKR-NH2] |  |  | Kd [3]: ≤ 300 µM

The next lines start with results.

Kd (Peptide truncation analysis) [µM] | Kd [2] [µM] | Molecule | further results
 | ≤ 300 | Ac-CPRPPKR-NH2 [MH070, Ac-CPRPPKR-NH2] | 
 | ≤ 300 | Ac-DPRPPKR-NH2 [MH083, Ac-DPRPPKR-NH2] | 
 | ≤ 300 | Ac-EPRPPKR-NH2 [MH071, Ac-EPRPPKR-NH2] | 
 | ≤ 300 | Ac-FPRPPKR-NH2 [MH073, Ac-FPRPPKR-NH2] | 
 | ≤ 300 | Ac-GPRPPKR-NH2 [MH091, Ac-GPRPPKR-NH2] | 
 | ≤ 300 | Ac-HPRPPKR-NH2 [MH072, Ac-HPRPPKR-NH2] | 
 | ≤ 300 | Ac-IPRPPKR-NH2 [MH095, Ac-IPRPPKR-NH2] | 
 | ≤ 300 | Ac-KPRPPKR-NH2 [MH103, Ac-KPRPPKR-NH2] | 
 | 300 to 600 | Ac-LPRPPKR-NH2 [MH099, Ac-LPRPPKR-NH2] | 
 | ≤ 300 | Ac-MPRPPKR-NH2 [MH109, Ac-MPRPPKR-NH2] | 

Reference: patent US20260365696A1, “INHIBITORS OF PTP1B / NCK1 INTERACTION AND METHODS OF MAKING AND USING SAME” (Radella Pharmaceuticals LLC, priority 2023, published 2026)
